Measurements: article PMC2765508 (Biochemistry, 2009)
Entries after “also recorded” stand apart in the source; their conditions may differ.

What was measured:
[1] = tested on: nardilysin; settings: cited from earlier work
[2] = tested on: insulysin; settings: cited from earlier work
[3] = molecular target: T1, human MP1 (Homo sapiens, UniProt Q5JRX3); assay type: biochemical; settings: for kcat/Km: from kcat (HPLC) and Km (alternate substrate inhibition)
T1 sequence (Q5JRX3 29-1037): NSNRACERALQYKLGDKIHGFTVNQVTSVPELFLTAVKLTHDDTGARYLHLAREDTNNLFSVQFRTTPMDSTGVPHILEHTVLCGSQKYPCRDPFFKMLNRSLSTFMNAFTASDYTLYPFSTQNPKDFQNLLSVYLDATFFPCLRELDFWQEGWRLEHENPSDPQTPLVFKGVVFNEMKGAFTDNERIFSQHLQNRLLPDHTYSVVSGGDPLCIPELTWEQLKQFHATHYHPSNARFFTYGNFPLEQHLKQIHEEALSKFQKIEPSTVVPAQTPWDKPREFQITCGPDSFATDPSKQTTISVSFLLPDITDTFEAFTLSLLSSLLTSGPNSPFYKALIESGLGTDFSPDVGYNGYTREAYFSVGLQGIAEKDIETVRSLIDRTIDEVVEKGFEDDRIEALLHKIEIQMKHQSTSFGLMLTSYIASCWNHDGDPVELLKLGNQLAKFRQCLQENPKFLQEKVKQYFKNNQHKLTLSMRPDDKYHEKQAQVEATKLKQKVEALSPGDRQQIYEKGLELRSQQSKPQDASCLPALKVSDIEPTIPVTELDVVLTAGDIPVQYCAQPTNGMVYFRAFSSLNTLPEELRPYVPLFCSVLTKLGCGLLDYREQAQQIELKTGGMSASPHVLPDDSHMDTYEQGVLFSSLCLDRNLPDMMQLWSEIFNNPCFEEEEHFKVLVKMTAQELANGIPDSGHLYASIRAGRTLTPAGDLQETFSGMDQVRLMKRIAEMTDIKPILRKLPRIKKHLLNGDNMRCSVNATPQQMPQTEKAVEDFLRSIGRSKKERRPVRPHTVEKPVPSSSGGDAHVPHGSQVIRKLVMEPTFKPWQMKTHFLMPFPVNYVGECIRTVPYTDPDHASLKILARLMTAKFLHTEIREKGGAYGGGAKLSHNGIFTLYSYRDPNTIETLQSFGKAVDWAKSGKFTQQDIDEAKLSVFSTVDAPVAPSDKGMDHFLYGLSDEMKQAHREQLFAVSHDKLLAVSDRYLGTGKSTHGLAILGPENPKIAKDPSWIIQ

[4] = tested on: protease III; settings: cited from earlier work
[5] = tested on: MP1 (metallopeptidase 1, mammalian pitrilysin); assay: purified recombinant human MP1
[6] = molecular target: T1, human MP1; assay type: biochemical; settings: 27 amino acid citrate synthase presequence peptide as MP1 substrate
[7] = tested on: MP1; assay: 2 μg of MP1 in 25 mM Tris buffer, pH 7.5; settings: human

Substance	kcat/Km [3] [M × min^−1 × 10^5]	cleaved bond [5]	other results
Angiotensin I	44.6 ± 4.3	–	cleavage by nardilysin [1]: not cleaved; cleavage by insulysin [2]: not cleaved; cleavage by protease III [4]: not cleaved
CGNLSTCMLGTYTQDFNKFHTFPQTAIGVGAP	–	C-M, first_seen; also recorded: G-T, first_seen; also recorded: K-F, minor	–
CGNLSTC▼MLG▼TYTQDFNK↓FHTFPQTAIGVGAP [Calcitonin]	15.4 ± 0.6	–	–
DAEFRHDSGYEVHHQKLVFF▼AEDVGSNKGAIIGL↓MVGGVV [β-Amyloid (1–40)]	19.5 ± 1.1	–	–
Insulin	0.03 ± 0.00	–	–
MALLTAAARLFGAKNASCLVLAARHAS-NH2 [citrate synthase presequence peptide]	–	–	Km [6]: 170 nM; kcat ([3]; 27 amino acid citrate synthase presequence peptide as MP1 substrate): 1.1 min⁻¹
RPKPQQFFGLM	–	F-F, minor; also recorded: G-L, first_seen	–
RPKPQQF↓FG▼LM [Substance P]	23.6 ± 2.5	–	–
RPPG▼FSPFR [Bradykinin]	21.8 ± 1.2	–	cleavage by nardilysin [1]: not cleaved; cleavage by insulysin [2]: not cleaved; cleavage by protease III [4]: not cleaved
SLRRSSCFGGRMDRIGAQSGLGCNSFRY	–	D-R, first_seen; also recorded: S-F, first_seen	–
SLRRSSCFGGRMD▼RIGAQSGLGCNS▼FRY (disulfide) [Atrial natriuretic peptide]	199.2 ± 18.6	–	–
Somatostatin	41.7 ± 3.8	–	–
YADAIFTNSYRKVLGQLSARKLQDIMQQGESNQERGA	–	Y-A, minor; also recorded: G-Q, first_seen; also recorded: S-A, first_seen	–
YGGFL	–	Y-G, first_seen	–
YGGFL [Leu-enkephalin]	18.7 ± 2.1	–	–
YGGFLRRIRPKLKWDNQ	–	R-I, minor; also recorded: P-K, first_seen; also recorded: Y-G, minor	–
YGGFLRRQFKVVT	–	Y-G, minor; also recorded: F-K, minor; also recorded: K-V, first_seen	–
YGGFMTSEKSETPLVTLFKNAIIKNAYKKGE	–	–	cleaved bond [7]: Phe-M, minor; also recorded: Thr16-Leu17, minor; also recorded: Pro13-Leu14, minor; also recorded: Leu14-Val15, minor
YGG↓F↓MTSEKSETPLV↓T↓L▼FKNA▼IIKNAYKKGE [β-endorphin]	62.6 ± 5.1	–	–
Y↓ADAIFTNSYRKVLG▼QLS▼ARKL↓QDIMQQGESNQERGA [Growth Hormone Releasing factor]	29.4 ± 3.4	–	–
Y↓GGFLRRQFK↓VVT↓RSQED▼PNAYYEEL▼FDV [Leumorphin (porcine), Leumorphin]	63.5 ± 4.5	–	–
Y↓GGFLRRQF↓K▼VVT [Dynorphin B]	46.3 ± 6.8	–	–
Y↓GGFLRR↓IRP▼KLKWDNQ [Dynorphin A]	62.6 ± 6.8	–	–
